What was measured:
[1] = system: HIV-gpt; experiment: HIV-gpt colony formation after infection of HeLa-T4 cells in the presence of antiretroviral agents; format: cell-based; conditions: HeLa-T4; plasmid derived HIV-gpt (COS cells); AZT 10 μM, DDI 50 μM, D4T 50 μM; no drug control 8800
[2] = system: HIV-IIIB; experiment: HIV-IIIB infection of JE6.1 cells refractory to d4T, D4T IC50 with FUdr (RT activity); format: cell-based, HIV-1; conditions: Human immunodeficiency virus 1, IIIB, 144 h, concentration of D4T for 50% inhibition of RT activity on day 6, F = uM FUdr
Experimental: Table 8. Jurkat JE6.1 cells refractory to the antiviral activity of d4T (D4T bulk, D4TR1, D4TR3) and control JE6.1 cells were infected with HIV-IIIB in the presence of 0.001 uM d4T, 0.01 uM d4T 0.1 uM d4T, 1 uM d4T, 10 uM d4T, 100 uM d4T and 1000 uM d4T in the presence of 0.005 uM FUdr, 0.01 uM FUdr or 0.25 uM FUdr.

[3] = system: MLV-LacZ; experiment: Infection of Jurkat JE6.1 cell clones with MLV-LacZ in the presence of D4T; format: cell-based
From the text: Table 7. Infection of Jurkat JE6.1 cell clones sensitive and resistant to D4T.
** Bulk=bulk culture; R=resistant clone; C=control clone; JE6.1=parental cell line.

[4] = system: HIV-LacZ; format: cell-based; conditions: d4T at 50 μM
[5] = system: HIV-gpt; experiment: HIV-gpt colony formation in the presence of D4T; format: cell-based; conditions: for Frequency: with D4T
Experimental: (§1) Production of recombinant HIV-gpt has been described elsewhere (26). The amphotropic cell line PA317 was transfected with the recombinant murine retrovirus pLXSN (36) and was used as the source of the recombinant MLV-neo virus. Stock preparations of HIV-1IIIB were harvested from H9 cells by the “shake off method” (13). Stock virus infectivity was determined by end-point dilution in MT-2 cells (32). Virus induced cytopathic effect was scored 7 days post-infection and the TCID50 was calculated with the Reed and Muench equation (33).
(§2) To confirm this high rate of infection in the absence of genetic drug resistance, we used several other recombinant viruses and host cells. […] A high rate of infection of Jurkat cells in the presence of d4T has also been seen.
(§3) Table 5. HIV-gpt produced in COS cells by transfection with plasmids (plasmid derived) is compared with HIV-gpt produced by, rescue from H9/HIV-gpt cell line after infection with HIV-IIIB and cells infected with MLV-neo.

[6] = system: recombinant HIV, recombinant MLV, or replication-competent HIV; format: cell-based
From the text: The presence of a selectable marker gene in the recombinant HIV allowed the isolation of cells infected by the recombinant viruses in the presence of d4T. These cells were characterized by infection with both additional recombinant viruses and by replication-competent viruses.
(§4) Table 6. Colony formation and persistent resistance after Hela-T4 cell infection with MLV-neo virus in the presence and absence of various antiviral agents.

[7] = system: MLV-neo; experiment: MLV-neo colony formation in the presence of antiviral agents; format: cell-based, Moloney Leukemia virus
Experimental: as §1, §2, §3, §4

Cc1cn([C@H]2C=C[C@@H](CO)O2)c(=O)[nH]c1=O [D4T, Stavudine]
Number of colonies [1]: 50 | IC50 ([2]; D4TBulk cells (refractory to d4T)): 3 µM | IC50 ([2]; D4TR1 cells (refractory to d4T)): 74 µM | IC50 ([2]; D4TR3 cells (refractory to d4T)): 2 µM | IC50 ([2]; JE6.1 control cells): 0.02 µM | % cells infected with MLV-LacZ in the presence of D4T relative to absence of D4T ([3]; JE6.1 parental cell line, 50 uM D4T): − ((−), 20%) | % cells infected with MLV-LacZ in the presence of D4T relative to absence of D4T ([3]; JE6.1 parental cell line, 100 uM D4T): − ((−), 20%) | % cells infected with MLV-LacZ in the presence of D4T relative to absence of D4T ([3]; Jurkat Bulk (bulk culture), 50 uM D4T): ++ ((++) 41-60%) | % cells infected with MLV-LacZ in the presence of D4T relative to absence of D4T ([3]; Jurkat Bulk (bulk culture), 100 uM D4T): + ((+) 21-40%) | % cells infected with MLV-LacZ in the presence of D4T relative to absence of D4T ([3]; Jurkat control clone C2, 50 uM D4T): − ((−), 20%) | % cells infected with MLV-LacZ in the presence of D4T relative to absence of D4T ([3]; Jurkat control clone C2, 100 uM D4T): − ((−), 20%) | % cells infected with MLV-LacZ in the presence of D4T relative to absence of D4T ([3]; Jurkat control clone C23, 50 uM D4T): − ((−), 20%) | % cells infected with MLV-LacZ in the presence of D4T relative to absence of D4T ([3]; Jurkat control clone C23, 100 uM D4T): − ((−), 20%) | % cells infected with MLV-LacZ in the presence of D4T relative to absence of D4T ([3]; Jurkat control clone C26, 50 uM D4T): − ((−), 20%) | % cells infected with MLV-LacZ in the presence of D4T relative to absence of D4T ([3]; Jurkat control clone C26, 100 uM D4T): − ((−), 20%) | % cells infected with MLV-LacZ in the presence of D4T relative to absence of D4T ([3]; Jurkat control clone C27, 50 uM D4T): − ((−), 20%) | % cells infected with MLV-LacZ in the presence of D4T relative to absence of D4T ([3]; Jurkat control clone C27, 100 uM D4T): − ((−), 20%) | % cells infected with MLV-LacZ in the presence of D4T relative to absence of D4T ([3]; Jurkat resistant clone R1, 50 uM D4T): ++++ ((++++), 81-100%) | % cells infected with MLV-LacZ in the presence of D4T relative to absence of D4T ([3]; Jurkat resistant clone R1, 100 uM D4T): ++++ ((++++), 81-100%) | % cells infected with MLV-LacZ in the presence of D4T relative to absence of D4T ([3]; Jurkat resistant clone R3, 50 uM D4T): +++ ((+++), 61-80%) | % cells infected with MLV-LacZ in the presence of D4T relative to absence of D4T ([3]; Jurkat resistant clone R3, 100 uM D4T): ++ ((++) 41-60%) | % cells infected with MLV-LacZ in the presence of D4T relative to absence of D4T ([3]; Jurkat resistant clone R4, 50 uM D4T): − ((−), 20%) | % cells infected with MLV-LacZ in the presence of D4T relative to absence of D4T ([3]; Jurkat resistant clone R4, 100 uM D4T): − ((−), 20%) | % cells infected with MLV-LacZ in the presence of D4T relative to absence of D4T ([3]; Jurkat resistant clone R7, 50 uM D4T): − ((−), 20%) | % cells infected with MLV-LacZ in the presence of D4T relative to absence of D4T ([3]; Jurkat resistant clone R7, 100 uM D4T): − ((−), 20%) | % cells infected with MLV-LacZ in the presence of D4T relative to absence of D4T ([3]; Jurkat resistant clone R12, 50 uM D4T): ++++ ((++++), 81-100%) | % cells infected with MLV-LacZ in the presence of D4T relative to absence of D4T ([3]; Jurkat resistant clone R12, 100 uM D4T): ++++ ((++++), 81-100%) | % cells infected with MLV-LacZ in the presence of D4T relative to absence of D4T ([3]; Jurkat resistant clone R14, 50 uM D4T): + ((+) 21-40%) | % cells infected with MLV-LacZ in the presence of D4T relative to absence of D4T ([3]; Jurkat resistant clone R14, 100 uM D4T): − ((−), 20%) | % cells infected with MLV-LacZ in the presence of D4T relative to absence of D4T ([3]; Jurkat resistant clone R15, 50 uM D4T): ++++ ((++++), 81-100%) | % cells infected with MLV-LacZ in the presence of D4T relative to absence of D4T ([3]; Jurkat resistant clone R15, 100 uM D4T): ++++ ((++++), 81-100%) | % cells infected with MLV-LacZ in the presence of D4T relative to absence of D4T ([3]; Jurkat resistant clone R16, 50 uM D4T): + ((+) 21-40%) | % cells infected with MLV-LacZ in the presence of D4T relative to absence of D4T ([3]; Jurkat resistant clone R16, 100 uM D4T): − ((−), 20%) | % cells infected with MLV-LacZ in the presence of D4T relative to absence of D4T ([3]; Jurkat resistant clone R19, 50 uM D4T): − ((−), 20%) | % cells infected with MLV-LacZ in the presence of D4T relative to absence of D4T ([3]; Jurkat resistant clone R19, 100 uM D4T): − ((−), 20%) | % cells infected with MLV-LacZ in the presence of D4T relative to absence of D4T ([3]; Jurkat resistant clone R20, 50 uM D4T): ++++ ((++++), 81-100%) | % cells infected with MLV-LacZ in the presence of D4T relative to absence of D4T ([3]; Jurkat resistant clone R20, 100 uM D4T): +++ ((+++), 61-80%) | % cells infected with MLV-LacZ in the presence of D4T relative to absence of D4T ([3]; Jurkat resistant clone R21, 50 uM D4T): ++++ ((++++), 81-100%) | % cells infected with MLV-LacZ in the presence of D4T relative to absence of D4T ([3]; Jurkat resistant clone R21, 100 uM D4T): ++++ ((++++), 81-100%) | % cells infected with MLV-LacZ in the presence of D4T relative to absence of D4T ([3]; Jurkat resistant clone R22, 50 uM D4T): ++ ((++) 41-60%) | % cells infected with MLV-LacZ in the presence of D4T relative to absence of D4T ([3]; Jurkat resistant clone R22, 100 uM D4T): + ((+) 21-40%) | % cells infected with MLV-LacZ in the presence of D4T relative to absence of D4T ([3]; Jurkat resistant clone R26, 50 uM D4T): + ((+) 21-40%) | % cells infected with MLV-LacZ in the presence of D4T relative to absence of D4T ([3]; Jurkat resistant clone R26, 100 uM D4T): − ((−), 20%) | % cells infected with MLV-LacZ in the presence of D4T relative to absence of D4T ([3]; Jurkat resistant clone R29, 50 uM D4T): − ((−), 20%) | % cells infected with MLV-LacZ in the presence of D4T relative to absence of D4T ([3]; Jurkat resistant clone R29, 100 uM D4T): − ((−), 20%) | % cells infected with MLV-LacZ in the presence of D4T relative to absence of D4T ([3]; Jurkat resistant clone R33, 50 uM D4T): +++ ((+++), 61-80%) | % cells infected with MLV-LacZ in the presence of D4T relative to absence of D4T ([3]; Jurkat resistant clone R33, 100 uM D4T): + ((+) 21-40%) | % cells infected with MLV-LacZ in the presence of D4T relative to absence of D4T ([3]; Jurkat resistant clone R36, 50 uM D4T): ++++ ((++++), 81-100%) | % cells infected with MLV-LacZ in the presence of D4T relative to absence of D4T ([3]; Jurkat resistant clone R36, 100 uM D4T): ++ ((++) 41-60%) | cross resistance of cell lines “persistently resistant” to AZT to other nucleoside analogs [4]: partial cross resistance | Frequency ([5]; HIV-gpt by rescue with HIV): 1.6 × 10^3 | No. of colonies with D4T ([5]; HIV-gpt by rescue with HIV, without D4T 3.4 × 10^4): 53 | Frequency ([5]; plasmid derived HIV-gpt): 1.7 × 10^3 | No. of colonies with D4T ([5]; plasmid derived HIV-gpt, without D4T 4.7 × 10^4): 80 | cells infected with HIV in the presence of d4T that are readily re-infected in the presence of high concentrations of d4T [6]: ~50% | No. of persistently resistant colonies ([6]; Hela-T4, MLV-neo, AZT 10 uM, DDI 50 uM, DDC 10 uM, D4T 50 uM, resistant/tested): 23/63 | isolated cells repeatedly refractory to the antiviral effects of d4T ([6]; cells infected in the presence of d4T, re-infection at high concentrations of d4T): approximately 37% | Frequency ([6]; frequency of persistently resistant colonies, Hela-T4, MLV-neo): 2.5 × 10^−3 | No. of colonies ([7]; Hela-T4, AZT 10 uM, DDI 50 uM, DDC 10 uM, D4T 50 uM, control 9050): 63 | No. of colonies with D4T ([7]; without D4T 9.2 × 10^4): 101

From US6576622B1, “Drug combination for the treatment of viral diseases” (University of Medicine & Dentistry of New Jersey, priority 1995, dated 2003)
